Data set [1] has as its system ASBT. The note with it: read-out: IC50 against ASBT; cited from earlier work.
In data set [2] the target is T1, Human ASBT (Homo sapiens, UniProt Q12908).
T1 construct: expressed in transfected cells; host or cells: HEK293T
T1 sequence (Q12908 1-348): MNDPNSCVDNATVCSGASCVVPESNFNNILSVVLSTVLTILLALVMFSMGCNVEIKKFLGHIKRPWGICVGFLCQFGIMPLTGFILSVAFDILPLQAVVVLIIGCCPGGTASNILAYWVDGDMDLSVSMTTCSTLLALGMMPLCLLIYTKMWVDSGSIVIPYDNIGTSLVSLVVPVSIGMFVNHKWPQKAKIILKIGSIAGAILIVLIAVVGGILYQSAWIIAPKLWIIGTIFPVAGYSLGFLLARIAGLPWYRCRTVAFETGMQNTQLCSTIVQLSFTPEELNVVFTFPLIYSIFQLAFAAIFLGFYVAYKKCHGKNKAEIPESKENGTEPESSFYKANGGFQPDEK
Kind of data set: ASBT inhibition assay: [3H]-taurocholic acid uptake in HEK293T cells transiently transfected with human ASBT. Type of data set: cell-based. The note with it: for inhibition at 10 µM: HEK-293T; for IC50: inhibitor concentration that gives 50% taurocholate uptake compared to no inhibitor control. The method, then: In vitro inhibitory activity of all target compounds against ASBT was evaluated using a radioisotope-based assay. All the newly synthesized derivatives were initially tested at 10 μM concentration (Table 1).
HEK293T was obtained from the American Type Culture Collection (Manassas, VA, USA), and grown in MEM supplemented with 100 U/mL penicillin and […] streptomycin and 10% heat-inactivated fetal bovine serum. Human ASBT expression construct was prepared as previously described. HEK293T cells were seeded in 12 well plates and transiently transfected with 0.5 μg/well pcDNA3.1/ASBT or negative control plasmid pcDNA3.1 using lipofactamine 2000 (Invitrogen, Carlsbad, CA, USA) according to the manufacturer’s instructions. Twenty-four hours after transfection, HEK293T cells were assayed for taurocholic acid uptake as previously described with minor modifications. […] To terminate the transport process, the plates were chilled on ice and the cells were immediately washed with ice-cold buffer three times. Cells were lysed with 0.3 mL lysis buffer (0.5% triton x-100) and shaken vigorously for 20 min. The radioactivity of the cell lysate was counted using a MicroBeta^2 Liquid Scintillation and Luminescence Counter (PerkinElmer Life Sciences). Protein concentration of the lysate was used to normalize uptake activity.
The inhibition rate was calculated using the following formula: Inhibition Rate (%) = [(1 − (A − C)/(B − C)] × 100
A, [^3H] uptake value of test compound in [^3H]-TCA buffer added to pcDNA3.1/ASBT transfected cells; B, [^3H] uptake value of DMSO (without inhibitor) in [^3H]-TCA buffer added to pcDNA3.1/ASBT transfected cells; C, [^3H] uptake value of Blank sample (DMSO) in [^3H]-TCA buffer added to empty vector (pcDNA3.1) transfected cells.

For the compound `O=C(Nc1ccc(Cl)c(Cl)c1)c1ccccc1NS(=O)(=O)c1cccc([N+](=O)[O-])c1` [Compound 5a1, N-(3,4-Dichlorophenyl)-2-(3-nitrophenylsulfonamido)benzamide], the half-inhibitory concentration (IC50) in data set [1] was 4 µM.

`O=C(Nc1cccc(OC(F)(F)F)c1)c1ccccc1NS(=O)(=O)c1cccc(F)c1` [Compound 5e4, 2-(3-Fluorophenylsulfonamido)-N-(3-(trifluoromethoxy)phenyl)benzamide] yielded a melting point of 166.8 to 168.7 °C. Besides, the inhibition at 10 µM in data set [2] stood at 45.7 ± 3.6%.

Compound `O=C(Nc1ccc(Cl)c(Cl)c1)c1ccccc1NS(=O)(=O)c1cccc(F)c1` [Compound 5e5, N-(3,4-Dichlorophenyl)-2-(3-fluorophenylsulfonamido)benzamide] returned a melting point of 179.1 to 180.6 °C. In data set [2], this compound showed an inhibition at 10 µM of 40.6 ± 2.8%.

Turning to `COc1cccc(S(=O)(=O)Nc2ccccc2C(=O)Nc2ccc(Cl)cc2Cl)c1` [Compound 5f1, N-(2,4-Dichlorophenyl)-2-(3-methoxyphenylsulfonamido)benzamide], the melting point is 138.8 to 139.7 °C. Moreover, 10 µM produced 21.2 ± 3% inhibition in data set [2].

On to `COc1cccc(S(=O)(=O)Nc2ccccc2C(=O)Nc2ccc(F)c(Cl)c2)c1` [Compound 5f2, N-(3-Chloro-4-fluorophenyl)-2-(3-methoxyphenylsulfonamido)benzamide], for which the melting point was 181.9 to 183.2 °C. The compound further registered an inhibition at 10 µM in data set [2] of 59.5 ± 3.6%.

`COc1cccc(S(=O)(=O)Nc2ccccc2C(=O)Nc2ccc(C)c(C(F)(F)F)c2)c1` [Compound 5f3, 2-(3-Methoxyphenylsulfonamido)-N-(4-methyl-3-(trifluoromethyl)phenyl)benzamide] returned a melting point of 165.7 to 166.6 °C. In addition, in data set [2], the inhibition at 10 µM amounted to 43 ± 3.2%.

With `COc1cccc(S(=O)(=O)Nc2ccccc2C(=O)Nc2cccc(OC(F)(F)F)c2)c1` [Compound 5f4, 2-(3-Methoxyphenylsulfonamido)-N-(3-(trifluoromethoxy)phenyl)benzamide], the melting point is 149.3 to 150.8 °C. The compound further showed an inhibition at 10 µM in data set [2] of 25.8 ± 2.1%.

For the compound `COc1cccc(S(=O)(=O)Nc2ccccc2C(=O)Nc2ccc(Cl)c(Cl)c2)c1` [Compound 5f5, N-(3,4-Dichlorophenyl)-2-(3-methoxyphenylsulfonamido)benzamide], the melting point was in the range of 160.3 to 161.4 °C. Moreover, testing at 10 µM in data set [2] gave an inhibition of 20.1 ± 1.9%.

As for `O=C(Nc1ccc(Cl)cc1Cl)c1ccccc1NS(=O)(=O)c1cccc(OC(F)(F)F)c1` [Compound 5g1, N-(2,4-Dichlorophenyl)-2-(3-(trifluoromethoxy)phenylsulfonamido)benzamide], the melting point was 151.6 to 152.8 °C. In data set [2], this compound gave an inhibition at 10 µM of 89.3 ± 3.3% and an IC50 of 910 ± 180 nM.

In the case of `O=C(Nc1ccc(F)c(Cl)c1)c1ccccc1NS(=O)(=O)c1cccc(OC(F)(F)F)c1` [Compound 5g2, N-(3-Chloro-4-fluorophenyl)-2-(3-(trifluoromethoxy)phenylsulfonamido)benzamide], the melting point fell in the range of 157.3 to 158.6 °C. Further, in data set [2], 10 µM produced 98.6 ± 2.6% inhibition and 110 ± 50 nM corresponded to half-maximal inhibition (IC50).

For `Cc1ccc(NC(=O)c2ccccc2NS(=O)(=O)c2cccc(OC(F)(F)F)c2)cc1C(F)(F)F` [Compound 5g3, N-(4-Methyl-3-(trifluoromethyl)phenyl)-2-(3-(trifluoromethoxy)phenylsulfonamido)benzamide], the melting point was in the range of 179.4 to 180.5 °C. In data set [2], this compound gave an inhibition at 10 µM of 91.8 ± 3.5% and an IC50 of 830 ± 110 nM.

On to `O=C(Nc1cccc(OC(F)(F)F)c1)c1ccccc1NS(=O)(=O)c1cccc(OC(F)(F)F)c1` [Compound 5g4, N-(3-(Trifluoromethoxy)phenyl)-2-(3-(trifluoromethoxy)phenylsulfonamido)benzamide], for which the melting point fell in the range of 169.1 to 170.4 °C. In data set [2], this compound had an inhibition at 10 µM of 88.1 ± 2.7% and an IC50 of 1030 ± 160 nM.

Broadly, the IC50 is the concentration needed to halve the response being measured. What is called melting point is the temperature, or range, at which the solid turns liquid. A word on the inhibition: it is how much of the control response was suppressed.

Source of the values: article PMC6269792, “Arylsulfonylamino-Benzanilides as Inhibitors of the Apical Sodium-Dependent Bile Salt Transporter (SLC10A2)” (Molecules, 2013).
